Measured values taken from US8846746B2, “Pyrazole compound and pharmaceutical use thereof” (Japan Tobacco Inc., priority 2011, dated 2014).

Target: human SGLT1 (Homo sapiens (Human), UniProt P13866)
Experiment: SGLT1 inhibitory activity: 14C-AMG uptake into CHO-K1 cell line stably expressing human SGLT1
Type: cell-based
Conditions: 14C-AMG uptake, CHO-K1 cells expressing human SGLT1
In short: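 CHO-K1 cells stably expressing human SGLT1 were pre-incubated 20 min in Na(−) buffer (pH 7.4). Test compound in Na(+) buffer with BSA was added with ¹⁴C-AMG (8 kBq) plus unlabelled AMG (2 mM in the added solution) for 1 h at 37 °C.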

Sequence of human SGLT1 (P13866 whole entry): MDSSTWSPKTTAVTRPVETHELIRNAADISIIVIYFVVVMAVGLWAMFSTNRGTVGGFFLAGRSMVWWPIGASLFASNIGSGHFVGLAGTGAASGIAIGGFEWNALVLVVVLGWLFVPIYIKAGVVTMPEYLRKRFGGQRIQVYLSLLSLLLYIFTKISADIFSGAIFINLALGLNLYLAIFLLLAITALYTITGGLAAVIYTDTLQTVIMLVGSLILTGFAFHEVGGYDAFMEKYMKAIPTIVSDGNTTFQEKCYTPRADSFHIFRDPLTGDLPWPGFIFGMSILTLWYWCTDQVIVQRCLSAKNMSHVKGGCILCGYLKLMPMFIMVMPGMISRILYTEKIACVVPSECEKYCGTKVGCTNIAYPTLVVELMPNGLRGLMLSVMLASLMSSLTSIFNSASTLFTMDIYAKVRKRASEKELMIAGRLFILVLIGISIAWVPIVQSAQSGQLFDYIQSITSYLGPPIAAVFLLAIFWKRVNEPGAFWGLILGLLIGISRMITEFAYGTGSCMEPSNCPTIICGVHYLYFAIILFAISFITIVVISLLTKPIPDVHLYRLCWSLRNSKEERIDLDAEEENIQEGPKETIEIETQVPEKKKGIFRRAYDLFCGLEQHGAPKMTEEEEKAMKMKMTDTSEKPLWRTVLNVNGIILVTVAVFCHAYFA

Row | IC50 [nM] | SMILES
1 | 570 | O=C1C[C@@H](C(=O)Nc2cc(-c3cccc(CO)c3)n(-c3ccccc3)n2)CN1 [Example 119]
2 | 44 | CCCc1cccc(-c2cc(NC(=O)[C@H]3CNC(=O)C3)nn2CCc2ccccc2)c1 [Example 107]
3 | 83 | CCCc1cccc(-c2cc(NC(=O)[C@@H]3CNC(=O)C3)nn2CC2CCCCC2)c1 [Example 112]
4 | 3.7 | CCC(C)(C)c1cccc(-c2cc(NC(=O)[C@H]3CNC(=O)C3)nn2-c2ccccc2)c1 [Example 52]
5 | 0.7 | C[C@H]1C(=O)NC[C@@H]1C(=O)Nc1cc(-c2cccc(C(C)(C)C)c2)n(-c2ccccc2Cl)n1 [Example 194]
6 | 16 | CCCc1cccc(-c2cc(NC(=O)[C@@H]3CNC(=O)C3)nn2-c2ccc(Cl)cc2)c1 [Example 37]
7 | 8.3 | Cc1cc(F)ccc1-n1nc(NC(=O)[C@H]2CNC(=O)C2)cc1-c1cccc(OC(F)(F)F)c1 [Example 195]
8 | 66 | CCCc1cccc(-c2cc(NC(=O)C3CNC(=O)C3)nn2C(C)C)c1 (racemic) [Example 17]

Same assay, conditions: 14C-AMG uptake, CHO-K1 cells stably expressing human SGLT1

Row | SMILES | IC50 [nM]
9 | C[C@@H](OCc1cccc(-c2cc(NC(=O)[C@@H]3CNC(=O)C3)nn2-c2cccc(OCc3ccccc3)c2)c1)C(F)(F)F [Example 438] | 3.1
10 | CCOc1cccc(-n2nc(NC(=O)[C@@H]3CNC(=O)C3)cc2-c2cccc(CO[C@H](C)C(F)(F)F)c2)c1 [Example 452] | 1.7
11 | CCCc1cccc(-c2cc(NC(=O)[C@@H]3CNC(=O)C3)nn2-c2ccc(OCC)cc2)c1 [Example 372] | 14
12 | CCCOc1cccc(-n2nc(NC(=O)[C@@H]3CNC(=O)C3)cc2-c2cccc(COCC(F)(F)F)c2)c1 [Example 448] | 4.3
13 | CCC(C)(C)C(=O)c1cccc(-c2cc(NC(=O)[C@@H]3CNC(=O)C3)nn2-c2ccccc2)c1 [Example 470] | 7
14 | CCOCc1cccc(-c2cc(NC(=O)[C@@H]3CNC(=O)C3)nn2-c2ccccc2)c1 [Example 283] | 110
15 | CC(C)(C)COc1cccc(-c2cc(NC(=O)[C@H]3CNC(=O)C3)nn2-c2ccccc2)c1 [Example 289] | 4.5
16 | C[C@@H](OCc1cccc(-c2cc(NC(=O)[C@@H]3CNC(=O)C3)nn2-c2ccccc2)c1)C(F)(F)F [Example 334] | 6.3
17 | CCOc1cccc(-n2nc(NC(=O)[C@@H]3CNC(=O)C3)cc2-c2cccc(COCC(F)(F)F)c2)c1 [Example 447] | 4.7

Other lines, results leading:

Row | IC50 [nM] | SMILES
18 | 40 | O=C1C[C@H](C(=O)Nc2cc(-c3cc(Cl)cc(COCC(F)(F)F)c3)n(-c3ccccc3F)n2)CN1 [Example 587]
19 | 7.5 | O=C1C[C@H](C(=O)Nc2cc(-c3cccc(OC(F)(F)F)c3)n(-c3ccccc3Cl)n2)CN1 [Example 473]
20 | 7.9 | O=C1C[C@H](C(=O)Nc2cc(-c3cc(F)cc(COCC(F)(F)F)c3)n(-c3cccc(Cl)c3)n2)CN1 [Example 511]
21 | 41 | CC(C)(OCc1cc(Cl)cc(-c2cc(NC(=O)[C@H]3CNC(=O)N3)nn2-c2ccc(F)cc2)c1)C(F)(F)F [Example 600]
22 | 6.5 | CCCc1cccc(-c2cc(NC(=O)[C@@H]3CNC(=O)C3)nn2-c2cccc(OCC3(C)COC3)c2)c1 [Example 491]
23 | 31 | CC(C)(OCc1cc(F)cc(-c2cc(NC(=O)[C@H]3CNC(=O)N3)nn2-c2ccccc2)c1)C(F)(F)F [Example 601]
24 | 2.1 | COc1cc(F)cc(-n2nc(NC(=O)[C@@H]3CNC(=O)C3)cc2-c2cccc(CO[C@H](C)C(F)(F)F)c2)c1 [Example 533]

Same assay, conditions: CHO-K1, at 0.00265 uM

Row | inhibition at 0.00265 µM [%] | SMILES
25 | 57 | C[C@H]1C(=O)NC[C@@H]1C(=O)Nc1cc(-c2cccc(CO[C@H](C)C(F)(F)F)c2)n(-c2ccccc2)n1 [Example 563]

Same assay, conditions: CHO-K1, at 0.1 uM

Row | inhibition at 0.1 µM [%] | SMILES
26 | 48 | C[C@@H](OCc1cc(-c2cc(NC(=O)[C@@H]3CNC(=O)C3)nn2-c2ccccc2)ccc1F)C(F)(F)F [Example 557]

Same assay, conditions: CHO-K1, at 0.3 uM

Row | inhibition at 0.3 µM [%] | SMILES
27 | 27 | CC(C)S(=O)(=O)c1cccc(-c2cc(NC(=O)[C@@H]3CNC(=O)C3)nn2-c2ccccc2)c1 [Example 568]

Same assay, conditions: at 0.1 uM

Row | human SGLT1 % Inhibition [%] | SMILES
28 | 27 | CCCc1cccc(-c2cc(NC(=O)C3CNC(=O)C(C)C3)nn2-c2ccccc2)c1 (racemic) [Example 293]
